Read-outs that look alike come from different tables or passages of the source.
Experiments:
[1] = system: Cancer Cell Lines (LoVo, HCT-116^+/+, HCT-116^-/-, HT-29, DLD-1); assay: MTT viability assay, mean over the five colon cancer cell lines and ratio to CoN; format: cell-based, human; conditions: for Ratio N/C: IC50 CoN / mean IC50 cancer cells
Procedure: (§1) HCT-116 (CCL-247), LoVo (CCL-229), DLD-1 (CCL-221), HT-29 (HTB-38) and CoN (CCD-841) human CRC cells were obtained from the ATCC (Manassas, VA, USA). HCT-116 cells were cultured in Dulbecco’s Modified Eagle’s Medium (DMEM; Corning Cellgro, Corning, NY, USA) for the invasion assays or RPMI-1640 medium (Lonza, Westburg, The Netherlands) for all other assays. The LoVo, DLD-1, and HT-29 cell lines were grown in RPMI-1640 for all experiments. Media were supplemented with 10% fetal bovine serum (FBS; Gibco, Waltham, MA, USA or Greiner Bio-One, Vilvoorde, Belgium), 100 U/mL penicillin, and 100 µg/mL streptomycin (Gibco, Waltham, MA). Cells were grown at 37 °C and 5% CO2 in a humidified atmosphere. The CoN cells were cultured in Eagle’s Minimum Essential Medium (Lonza, Westburg, The Netherlands) supplemented with 10% FBS (South America origin, Greiner Bio-One, Vilvoorde, Belgium). HCT-116 p53^-/- cells were obtained from Denis L.J. LaFontaine, Université Libre de Bruxelles, Brussels, Belgium.
(§2) Effects of compounds on viability were assessed by means of 3-(4,5-dimethylthiazol-2-yl)-2,5-diphenyltetrazolium bromide (MTT; Sigma-Aldrich, Diegem, Belgium) colorimetric assay as previously reported. Briefly, cells were seeded in flat-bottom 96-well plates at the appropriate cell density 24 h prior to the exposure or not to the compound of interest. Each compound was first solubilized in dimethylsulfoxide (DMSO) at 10^−2 M concentration and further diluted in a serial manner in the culture medium. Nine concentrations ranging from 10 nM to 100 µM were tested in sextuplicate within the assay. Evaluation of the cell viability was conducted after 72 h of exposure to the compound by means of MTT assay.

HCT-116^+/+ = assay: MTT viability assay, HCT-116+/+; format: cell-based, human; conditions: functional p53, mean of six replicates of one experiment, read-out: IC50 Cancer Cell Lines (C) HCT-116+/+
Procedure: as §1, §2

CoN = assay: MTT viability assay, CoN normal colon epithelial cell line; format: cell-based, human; conditions: 72 h of exposure, mean of six replicates of one experiment, read-out: IC50 Normal Cell Line (N) CoN
Procedure: as §1, §2

HCT-116^-/- = assay: MTT viability assay, HCT-116-/- (p53-null); format: cell-based, human; conditions: mean of six replicates of one experiment, read-out: IC50 Cancer Cell Lines (C) HCT-116-/-
Procedure: as §1, §2

LoVo = assay: MTT viability assay, LoVo; format: cell-based, human; conditions: 72 h of exposure, TP53 wild type, mean of six replicates of one experiment, read-out: IC50 Cancer Cell Lines (C) LoVo
Procedure: as §1, §2

HT-29 = assay: MTT viability assay, HT-29; format: cell-based, human; conditions: TP53 mutant, mean of six replicates of one experiment, read-out: IC50 Cancer Cell Lines (C) HT-29
Procedure: as §1, §2

DLD-1 = assay: MTT viability assay, DLD-1; format: cell-based, human; conditions: TP53 mutant, mean of six replicates of one experiment, read-out: IC50 Cancer Cell Lines (C) DLD-1
Procedure: as §1, §2

[2] = system: subpanel of CRC cell lines; conditions: NCI DTD 60 cell line screen; cited from earlier work
MMP-1, -2, -7, -9, -13 = assay: Luminex assay of MMP secretion in HCT-116 and LoVo cell supernatants; format: cell-based, human; conditions: 24 h, both cell lines (HCT-116, LoVo)
From the text: (§3) We ordered a customized Luminex® assay to quantify 15 targets at once from Biotechne (reference LXSAHM-15; R&D Systems, Abingdon, U.K.). The 15 targets were chosen on the basis of the literature as follows: the relevant metalloproteinases MMP-1, -2, -7, -9, -13 [49] and the cytokines associated with dismal prognosis or shorter disease-free survival period: C-C motif chemokine ligand (CCL) -4, CCL-22, Flt-3 ligand, IL-1β, IL-2, IL-6, IL-8, interferon gamma (IFNγ), vascular endothelial growth factor (VEGF), and pentraxin-3 [50]. Samples were prepared as follows: HCT-116 or LoVo cells were seeded in 6-well plates and allowed to adhere and grow until they reached 70% confluency. The culture medium was replaced by 1.5 mL of culture medium containing only 0.5% of FBS with or without the compounds to be tested (NAR at 80 nM, LYC at 6 µM, and HAE at 6 µM). After 24 h of treatment, supernatants were collected, aliquoted, and kept frozen at −80 °C. Three independent series of samples were prepared. […] We thus decided to concentrate several aliquots of our supernatant samples by centrifugation of 500 µL of supernatant with Amicon Ultra 0.5 mL filters characterized by a 3 kDa cut-off (UFC500324; Millipore, Merck, Hoeilaart, Belgium) leading to a final volume of 150 µL (3.3 times concentrated). The Luminex® assay was conducted according to manufacturer’s recommendations. Data were collected on a Bioplex-200 (Bio-Rad, Temse, Belgium).

IL-8 = assay: Luminex assay of IL-8 in HCT-116 and LoVo cell supernatants; format: cell-based, human; conditions: 24 h
From the text: as §3, with “Data were collected on a Bioplex-200 (Bio-Rad, Temse, Belgium).” left out

HCT-116 cells [3] = assay: Invasion assay, Matrigel-coated Boyden chambers, HCT-116; format: cell-based, human; conditions: for cell invasion, % of vehicle control: 24 h, corrected for adherent cells
Procedure: Prior to seeding HCT-116 cells in the invasion chambers, the medium was removed and cells were washed twice with phosphate buffered saline and incubated in DMEM lacking FBS for 48 h before seeding at a density of 1 × 10^5 cells/well into the upper portion of Matrigel-coated invasion chambers (Corning Biocoat, Corning, NY, USA), as described previously by our group in [47, 48]. The upper portion of each chamber contained cells suspended in serum-free DMEM containing DMSO vehicle alone or increasing concentrations of the Amaryllidaceae alkaloids NAR, LYC, and HAE. […] The lower portion of each chamber contained DMEM supplemented with 10% FBS. The FBS served as a chemoattractant. A polyethylene terephthalate (PET) membrane, containing 8 μm pores and coated with Matrigel basement membrane matrix, separated the upper and lower portions of the invasion chamber. After 24 h, chambers were removed and the cells that had not invaded were removed from within the chamber using a cotton swab. The cells that had invaded through and adhered to the bottom of the PET membrane separating the chambers were fixed with methanol and stained with 0.5% crystal violet (Sigma-Aldrich, St. Louis, MO, USA). Five random images were taken of the bottom of each membrane using a Cytation 5 Cell Imaging Multi-Mode Reader (Winooski, VT, USA). The cells in each image were counted using Image J (NIH, Bethesda, MD, USA).
To correct for the inhibitory effects of the Amaryllidaceae alkaloids on cell proliferation, cells from the same biological repeat were seeded in parallel in 24-well tissue culture plates at a density of 1 × 10^5 cells/well in DMEM containing 5% FBS (the average of the FBS concentrations in the upper and lower chambers) and supplemented with vehicle or increasing concentrations of the alkaloids. These wells were not coated with Matrigel. The medium was removed, and the adherent cells were trypsinized and counted 24 h after treatment using a hemocytometer. To compare cell invasion across treatments, cell invasion was corrected for adherent cell proliferation and expressed as % vehicle control.

VEGF = assay: Luminex assay of VEGF in HCT-116 and LoVo cell supernatants; format: cell-based, human; conditions: 24 h, both cell lines
From the text: as §3, with “Data were collected on a Bioplex-200 (Bio-Rad, Temse, Belgium).” left out

LoVo cells [4] = assay: Invasion assay, Matrigel-coated Boyden chambers, LoVo; format: cell-based, human; conditions: 6 µM, 24 h, corrected for adherent cells
LoVo cells [5] = assay: Adhesion assay (crystal violet), LoVo; format: cell-based, human; conditions: 0.08 µM, 15 h, 0.5% FBS, one experiment
Procedure: (§4) To evaluate the effects of the compounds on cell adhesion, 75000 HCT-116 or LoVo cells per well were seeded in 96-well flat-bottom plates in the presence or absence of each compound tested at three concentrations. In the first set of experiments, cells were allowed to adhere for 1, 5, 8, and 24 h and cultured with 10% FBS. Three independent experiments were performed each in sextuplicate to examine the time course of adhesion when grown with 10% FBS and increasing concentrations of each compound. In the second set of experiments cells were allowed to adhere for 15 h in a medium containing only 0.5% FBS to limit the contribution of proliferation to the results.
(§5) At the end of the incubation period, the plate was rinsed with phosphate buffered saline (PBS), fixed with 17.5% of formaldehyde at 4 °C for 15 min, and washed with deionized water twice before staining with 0.1% crystal violet (Sigma-Aldrich, Diegem, Belgium) in a 50:50 methanol/water mixture for 15 min. After extensive washes with water to remove any free crystal violet, the dye within the cells was extracted and solubilized in 100 µL of a 33% acetic acid solution and absorbance was measured at 570 nm (680XR, Bio-Rad Laboratories, Berkeley, CA, USA; reference wavelength 610 nm). The mean absorbance of the untreated control well was set at 100% for comparison. […]

HCT-116 cells [6] = assay: Adhesion assay (crystal violet), HCT-116; format: cell-based, human; conditions: 0.08 µM, 15 h, 0.5% FBS, one experiment
Procedure: as §4, §5

[7] = system: HT-29 p53-deficient and HCT-116 p53 wild-type models; design: method as in PMID 21220492; conditions: cited from earlier work
[8] = mean over five cancer cell lines, MTT, 72 h, read-out: Mean IC50 Cancer Cells
[9] = Homo sapiens, after 72 h of exposure, regardless of TP53 status, read-out: IC50s against all cancer cell lines
[10] = Homo sapiens, mean over five cancer cell lines, MTT, 72 h, read-out: Mean IC50 Cancer Cells
[11] = Homo sapiens, HCT-116, 72 h of exposure
[12] = Homo sapiens, HT-29, 72 h of exposure
[13] = Homo sapiens, DLD-1, 72 h of exposure

Row | SMILES | Ratio N/C [1] | IC50 [1, 8] [µM] | IC50 (HCT-116^+/+; 72 h of exposure) [µM] | IC50 (CoN) [µM] | IC50 (HCT-116^-/-; 72 h of exposure) [µM] | IC50 (LoVo) [µM] | IC50 (HT-29; 72 h of exposure) [µM] | IC50 (DLD-1; 72 h of exposure) [µM] | IC50 [1, 9] [µM] | IC50 [1, 10] [µM] | IC50 (HCT-116^+/+; [11]) [µM] | IC50 (CoN; Homo sapiens, Epithelial cell) [µM] | IC50 (HCT-116^-/-; [11]) [µM] | GI50 [2] [µM] | IC50 (LoVo; Homo sapiens, LoVo) [µM] | IC50 (HT-29; [12]) [µM] | IC50 (DLD-1; [13]) [µM] | secretion of MMP-1, -2, and -7 (MMP-1, -2, -7, -9, -13; 6 µM) | also measured
1 | N.N.[Cl][Pt][Cl] [Cisplatin, cisplatin, reference compound] | 5 | 13.5 | 4.5 | 67 | 17.5 | 8.4 | 22.1 | 14.8 |  |  |  |  |  |  |  |  |  |  | times less toxic toward non-cancerous cells ([1]; mean IC50s of cancer cell lines vs CoN cell line): 5 times
2 | CO[C@@H]1C=C[C@@]23c4cc5c(cc4CN(C[C@@H]2O)[C@H]3C1)OCO5 [HAE, haemanthamine] | 31 |  |  |  |  |  |  |  | ~3 | 2.7 | 1.9 | 85 | 2.2 | 15.8 | 4.6 | 2.5 | 2.4 | markedly decrease | 
3 | O[C@H]1[C@H]2c3cc4c(cc3CN3CCC(=C[C@@H]1O)[C@H]23)OCO4 [LYC, lycorine] | 24 |  |  |  |  |  |  |  | ~3 | 3.2 | 1.3 | 79 | 2.6 | 1.99 | 5.5 | 3.9 | 2.9 | markedly decrease | IL-8 secretion (IL-8; LYC 6 µM, both cellular models): reduced; invasion of HCT-116 cells (HCT-116 cells [3]; 1.5 µM, not dose-dependent): reduced; VEGF levels, times decreased (VEGF; 6 µM): ≤ 10 times; residual invasion rate (LoVo cells [4]): 37.4 ± 7.8%
4 | O=C1N[C@@H]2C(=C[C@H](O)[C@@H](O)[C@H]2O)c2cc3c(c(O)c21)OCO3 [NAR, narciclasine] | 32 | 0.033 | 0.023 | 1.1 | 0.029 | 0.052 | 0.032 | 0.03 |  |  |  |  |  | 0.0457 |  |  |  |  | times more potent than PANC ([1]; MTT IC50 comparison NAR vs PANC): 10 times; maximal inhibition of cell adhesion (LoVo cells [5]): 18%; IL-8 levels (IL-8; HCT-116 cells, NAR 80 nM, in comparison to LYC): opposite effects; cell invasion, % of vehicle control (HCT-116 cells [3]; 0.04 µM): 41.1 ± 4.3%; cell invasion, % of vehicle control (HCT-116 cells [3]; 0.08 µM): 13.6 ± 4.8%; VEGF levels, times decreased (VEGF; 0.08 µM): up to 5 times; inhibition of cell adhesion (HCT-116 cells [6]): 39%; secretion of MMP-1, -2, and -7 (MMP-1, -2, -7, -9, -13; 0.08 µM): markedly decrease
5 | O=C1N[C@H]2[C@H](O)[C@H](O)[C@@H](O)[C@H](O)[C@@H]2c2cc3c(c(O)c21)OCO3 [PANC, pancratistatin] | 8 |  |  |  |  |  |  |  |  | 0.3 | 0.17 | 2.4 | 0.16 | 0.263 | 0.59 | 0.3 | 0.28 |  | IC50 [7]: 0.1 µM
